Measured values from patent US20040147494A1, “Use” (priority 2001, published 2004).
Values joined by “and” are separate entries in the source; they are usually repeats but may differ in a detail not shown here. Equal entries are not always repeated. Structures can show the parent of a compound that is named as a salt.

What was measured:
[1] = molecular target: T1, 11 β-HSD type 1 (Rattus norvegicus, UniProt P16232); assay: biochemical; format: biochemical; settings: rat liver cytosol 25 μL, 90 min, 37° C., cortisone (E) to cortisol (F), vs control without inhibitor, means n=2; for % INHIBITION E→F ± SD: inhibitor 10 μM, 10 µM; for inhibition at 10 µM: read-out: % […]→F ± SD, inhibitor 10 μM, read-out: % INHIBITION E→F ± SD
T1 construct: Both the kidneys and livers were homogenised on ice in PBS- sucrose buffer; tissue Harlan Olac, Bicester, Oxon, UK (rats); host or cells: rat liver homogenate supernatant (Wistar rat)

[2] = molecular target: T2, 11 β-HSD type 2 (Rattus norvegicus, UniProt P50233); assay: biochemical; settings: rat kidney cytosol 150 μL, 60 min, 37° C., cortisol (F) to cortisone (E), vs control without inhibitor, means n=2; for inhibition at 10 µM: read-out: % […]→E ± SD, inhibitor 10 μM, read-out: % INHIBITION F→E ± SD; for % INHIBITION F→E ± SD: inhibitor 10 μM
T2 construct: Both the kidneys and livers were homogenised on ice in PBS- sucrose buffer; tissue Harlan Olac, Bicester, Oxon, UK (rats); host or cells: rat kidney homogenate supernatant (Wistar rat)
T2 sequence (P50233 1-400): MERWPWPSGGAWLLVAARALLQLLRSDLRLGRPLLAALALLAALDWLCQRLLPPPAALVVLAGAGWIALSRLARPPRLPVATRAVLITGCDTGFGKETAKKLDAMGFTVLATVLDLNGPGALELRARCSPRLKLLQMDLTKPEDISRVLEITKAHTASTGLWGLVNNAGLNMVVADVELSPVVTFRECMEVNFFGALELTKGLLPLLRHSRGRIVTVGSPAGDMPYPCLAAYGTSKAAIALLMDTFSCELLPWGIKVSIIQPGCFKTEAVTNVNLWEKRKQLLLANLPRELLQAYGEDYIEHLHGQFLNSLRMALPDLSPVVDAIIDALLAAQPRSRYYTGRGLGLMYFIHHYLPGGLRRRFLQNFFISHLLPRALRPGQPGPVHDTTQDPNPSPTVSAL
Experimental: Enzymes—Rat livers and rat kidneys were obtained from normal Wistar rats (Harlan Olac, Bicester, Oxon,UK). Both the kidneys and livers were homogenised on ice in PBS- sucrose buffer (1 g/10 ml) using an Ultra-Turrax. After the livers and kidneys were homogenised the homogenate was centrifuged for five minutes at 4000 rpm. The supernatant obtained was removed and stored in glass vials at −20° C. The amount of protein per μl of rat liver and kidney cytosol was determined using the Bradford method.
The same procedure was used for the 11 β-HSD type 2 assay, the conversion F to E, to determine the amount of rat kidney to be used and the incubation time.
In these assays the influence of different inhibitors on the 11 β-HSD activity both in reductive (type 1) and oxidative (type 2) directions were assessed. In the reductive direction E is the substrate and F the product and visa versa in the case of oxidation. The method described here is for the oxidative direction.
The substrate solution contained about 50,000 cpm/ml ^3H—F in PBS-sucrose and 0.5 pM F. 1 ml of the substrate solution was added to each tube, the inhibitors were also added, at a 10 μM concentration, to each tube except to the “control” and “blank” tubes. 150 μL was added to all tubes except to the blanks, this was done to correct for the amount of ^3H[…]. The tubes were incubated for 60 minutes in a mechanically shaken water bath at 37° C. […] After incubation 50 μL of recovery was added to correct for the losses made in the next steps, containing 5000 cpm/50 μL of ^14C-E and 50 μg/50 μL of unlabelled E (to visualise the spot on the TLC-plate). The aqueous mixture was then extracted with 4 ml of ether (2×30 sec cycle, vortex mix). After freezing the aqueous phase, the ether (upper) layer was decanted into smaller tubes and evaporated at 45° C. until completely dry. The residue was then re-dissolved in 6 drops of ether and transferred to a TLC-plate. The TLC-plate was developed in chloroform:methanol (9:1 v/v) solvent system, the TLC-plate ran for about 90 minutes until the solvent front had moved about 18 cm. The position of the product E was visualised under UV-light and cut out from the TLC-plate and put into scintillation vials. Radioactivity was eluted over 5 minutes with 0.5 ml methanol. 0.5 ml of PBS- sucrose and 10 ml of Ecoscint were then added and vortex mixed before counting in the scintillation counter. Before counting the samples, two total activity vials were prepared. These contained 0.5 ml of the substrate solution, 50 μL of the recovery, 0.5 ml of methanol and 10 ml of Ecoscint. These two total activity vials were needed to determine the amount of ^14C-E and ^3H—F added in the beginning to make the calculations.
To look at the percentage of inhibition four different concentrations, 1, 5, 10 and 20 μM, were used. The method for both the rat liver, type 1 the reductive, and rat kidney, type 2 the oxidative, stay the same throughout the entire experiment.
In this experiment the influence of different inhibitors on the conversion E to F and F to E was determined. The reason why inhibition in both directions was examined was to make a comparison between the inhibitors and which type of 11 β-HSD they inhibit more. Thirty-two compounds were screened for their ability to inhibit 11 β-HSD type 1 (E to F) and type 2 (F to E). […] The percent of inhibition was calculated as the percentage of decrease in radio labelled ^3H-E and ^3H—F of product formed, compared with the control activity (the tubes without an inhibitor in it). All the results calculated are means, n=2.

T1 sequence (P16232 whole entry): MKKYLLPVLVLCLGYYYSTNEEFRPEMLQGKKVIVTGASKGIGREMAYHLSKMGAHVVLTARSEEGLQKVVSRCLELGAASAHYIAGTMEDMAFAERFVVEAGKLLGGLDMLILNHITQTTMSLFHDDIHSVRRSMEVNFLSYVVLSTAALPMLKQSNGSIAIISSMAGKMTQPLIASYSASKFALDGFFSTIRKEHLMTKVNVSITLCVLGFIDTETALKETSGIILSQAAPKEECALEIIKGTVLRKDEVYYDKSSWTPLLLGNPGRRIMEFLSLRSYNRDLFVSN

Row | Compound | melting point | inhibition at 10 µM [1] [%] | inhibition at 10 µM [2] [%] | further results
1 | COC(=O)[C@@]1(C)CC[C@]2(C)CC[C@]3(C)C(=CCC4[C@@]5(C)CC[C@H](O)C(C)(C)C5CC[C@]43C)[C@@H]2C1 (some centres unmarked) [DGS01092 B] | 135 to 137 °C |  |  | 
2 | CC(C)(C)OC(=O)[C@@]1(C)CC[C@]2(C)CC[C@]3(C)C(=CC(=O)C4[C@@]5(C)CC[C@@H](O)C(C)(C)C5CC[C@]43C)[C@@H]2C1 (some centres unmarked) | 95 to 97 °C |  |  | 
3 | CC1(C)C2CC[C@]3(C)C(C(=O)C=C4[C@@H]5C[C@@](C)(C(=O)OCCCc6ccccc6)CC[C@]5(C)CC[C@]43C)[C@@]2(C)CC[C@H]1O (some centres unmarked) | 114 to 116 °C |  |  | 
4 | CC1(C)C2CC[C@]3(C)C(C(=O)C=C4[C@@H]5C[C@@](C)(C(=O)OCCc6ccccc6)CC[C@]5(C)CC[C@]43C)[C@@]2(C)CC[C@@H]1O (some centres unmarked) | 171 to 172 °C |  |  | 
5 | CC1(C)C2CC[C@]3(C)C(CC=C4[C@@H]5C[C@@](C)(C(=O)OCCc6ccccc6)CC[C@]5(C)CC[C@]43C)[C@@]2(C)CC[C@@H]1O (some centres unmarked) | 153 to 155 °C |  |  | 
6 | CC(=O)C1CCC2C3CCC4=CC(=O)CC[C@]4(C)C3[C@H](OCc3ccccc3)C[C@]12C (stereo partly drawn) [STX 185, 11α-Benzyloxyprogesterone] | 207 to 210 °C | 14 | 18.9 ± 4.2 | % INHIBITION E→F ± SD [1]: 16.1 ± 10.4%
7 | CC(C)OC(=O)[C@@]1(C)CC[C@]2(C)CC[C@]3(C)C(=CCC4[C@@]5(C)CC[C@H](O)C(C)(C)C5CC[C@]43C)[C@@H]2C1 (some centres unmarked) | 201 to 203 °C |  |  | 
8 | CC(O)C1CCC2C3CCC4=C[C@@H](O)CC[C@]4(C)C3[C@H](OCc3ccccc3)C[C@]12C (stereo in doubt) [STX-126, 11α-benzyloxy-3,20-dihydroxyprogesterone] | 117 to 118 °C | 33.8 ± 0.354 | 13.5 ± 2.97 | 
9 | CC(=O)O[C@H]1CC[C@@]2(C)C(CC[C@]3(C)C2CC=C2[C@@H]4C[C@@](C)(C(=O)OCc5ccccc5)CC[C@]4(C)CC[C@]23C)C1(C)C (stereo partly drawn) [STX 354, 11-Deoxo-3β-aectoxy-18β-glycyrrhetinic acid benzyl ester] | 207 to 208 °C | -1.18 ± 9.22 | 13.6 ± 1.42 | 
10 | CO[C@@H]1C[C@]2(C)C(C(C)=O)CCC2C2CCC3=CC(=O)CC[C@]3(C)C21 (stereo partly drawn) [STX193, 11α-Methoxyprogesterone] | 164 to 165 °C | 48.1 ± 0.313 | 68.2 ± 3.68 | 
11 | COC(=O)[C@@]1(C)CC[C@]2(C)CC[C@]3(C)C(=CCC4[C@@]5(C)CC[C@H](O)C(C)(C)C5CC[C@]43C)[C@@H]2C1 (some centres unmarked) [DG 383 B] | 291 to 293 °C |  |  | 
12 | CC(=O)C1CCC2C3CCC4=CC(=O)CC[C@]4(C)C3C(=O)C[C@]12C (some centres unmarked) [STX124, 11-Oxo-progesterone] | 182 to 183 °C | 100 ± 6.8 | 92.6 ± 2.1 | 
13 | CC(C)(C)OC(=O)[C@@]1(C)CC[C@]2(C)CC[C@]3(C)C(=CC(=O)C4[C@@]5(C)CC[C@H](O)C(C)(C)C5CC[C@]43C)[C@@H]2C1 (some centres unmarked) | 171 to 174 °C |  |  | 
14 | CC(O)C1CCC2C3CCC4=C[C@@H](O)CC[C@]4(C)C3[C@H](O)C[C@]12C (stereo in doubt) [STX125, 3,11,20-Trihydroxyproqesterone] | 122 to 125 °C | 85.1 ± 3.4 | 72.2 ± 4.3 | 
15 | COC(=O)[C@@]1(C)CC[C@]2(C)CC[C@]3(C)C(=CCC4[C@@]5(C)CCC(=O)C(C)(C)C5CC[C@]43C)[C@@H]2C1 (some centres unmarked) | 234 to 236 °C |  |  | 
16 | CC1(C)C2CC[C@]3(C)C(CC=C4[C@@H]5C[C@@](C)(C(=O)OC6CCCCC6)CC[C@]5(C)CC[C@]43C)[C@@]2(C)CC[C@@H]1O (some centres unmarked) | 163 to 166 °C |  |  | 
17 | CC1(C)C2CC[C@]3(C)C(CC=C4[C@@H]5C[C@@](C)(C(=O)OCC6CCCCC6)CC[C@]5(C)CC[C@]43C)[C@@]2(C)CC[C@@H]1O (some centres unmarked) | 133 to 134 °C |  |  | 
18 | CC1(C)C2CC[C@]3(C)C(CC=C4[C@@H]5C[C@@](C)(C(=O)OCc6ccccc6)CC[C@]5(C)CC[C@]43C)[C@@]2(C)CC[C@H]1O (some centres unmarked) | 151 to 152 °C |  |  | 
19 | CC1(C(=O)O)CCC2(C)CCC3C(=CC(=O)C4C3(C)CCC3C(C)(C)C(OC(=O)CCC(=O)O)CCC34C)C2C1 (centres unmarked) [Carbenoxalone, Carbenoxalone (disodium salt), reference compound] |  | 52.2 ± 4.8 | 100 | 
20 | CC1(C)CC[C@]2(C(=O)O)CC[C@]3(C)C(=CC[C@@H]4[C@@]5(C)CCC(=O)C(C)(C)[C@@H]5CC[C@]43C)[C@@H]2C1 [BLE99006, 3-Oxo-oleanoic acid] |  |  |  | % INHIBITION E→F ± SD [1]: 22% and 22.2 ± 0.354%; % INHIBITION F→E ± SD [2]: 45.6 ± 11.030%
21 | CC1(C)C2CC[C@]3(C)C(C(=O)C=C4[C@@H]5C[C@@](C)(C(=O)OCC6CCCCC6)CC[C@]5(C)CC[C@]43C)[C@@]2(C)CC[C@@H]1O (stereo partly drawn) [STX198, 3β-hydroxy-11-oxo-18β-glycyrrhetinic acid cyclohexylmethyl ester] | 98 to 99 °C | 52.3 ± 1.25 | 33 | % INHIBITION F→E ± SD ([2]; 10 µM): 33.1 ± 1.838%
22 | CC(C)OC(=O)[C@@]1(C)CC[C@]2(C)CC[C@]3(C)C(=CC(=O)C4[C@@]5(C)CC[C@H](O)C(C)(C)C5CC[C@]43C)[C@@H]2C1 (some centres unmarked) | 271 to 273 °C (dec.) |  |  | 
23 | CCOC(=O)[C@@]1(C)CC[C@]2(C)CC[C@]3(C)C(=CC(=O)C4[C@@]5(C)CC[C@H](O)C(C)(C)C5CC[C@]43C)[C@@H]2C1 (stereo partly drawn) [STX196, 3β-hydroxy-11-oxo-18β-glycyrrhetinic acid ethyl ester] | 93 to 94 °C | 80.7 ± 2.14 | 97.5 ± 1.37 | 
24 | CC1(C)C2CC[C@]3(C)[C@H](C(=O)C=C4[C@@H]5C[C@@](C)(C(=O)NC6CC6)CC[C@]5(C)CC[C@]43C)[C@@]2(C)CC[C@@H]1O (stereo partly drawn) [STX 370, 18β-Glycyrrhetinic Acid Cyclopropylamide] |  | 89.6 ± 1.18 | 102.5 ± 0.22 | 
25 | CC(C)(C)OC(=O)[C@@]1(C)CC[C@]2(C)CC[C@]3(C)C(=CC(=O)C4[C@@]5(C)CC[C@H](O)C(C)(C)C5CC[C@]43C)[C@@H]2C1 (some centres unmarked) [STX 298] |  | 50.6 ± 4.43 | 22.6 ± 12.9 | 
